{"source": "patent US20240228504A1", "about": "“SUBSTITUTED TRICYCLIC AMIDES, ANALOGUES THEREOF, AND METHODS USING SAME” (Arbutus Biopharma Corporation, priority 2020, published 2024)", "test_system": "HBV rcDNA in HepDE19 cells", "assay": "HepDE19 assay with bDNA quantitation of HBV rcDNA", "type": "cell-based, hepatitis B virus", "details": "Hepatitis B virus, HepDE19, HepDE19 assay, inhibition of rcDNA formation, bDNA quantitation; read-out: DE-19bDNA EC50"}
{"smiles": "CN([C@@H]1COCc2[nH]c(=O)c3cc(F)c(F)cc3c21)S(=O)(=O)c1cccc(Cl)c1", "note": "[Compound 144, (S)-3-Chloro-N-(8,9-difluoro-6-oxo-1,4,5,6-tetrahydro-2H-pyrano[3,4-c]isoquinolin-1-yl)-N-methylbenzenesulfonamide]", "values": [{"measurement": "EC50", "value": 12000, "unit": "nM"}]}
{"smiles": "CN([C@@H]1COCc2[nH]c(=O)c3cc(F)c(F)cc3c21)S(=O)(=O)c1cccc(C#N)c1", "note": "[Compound 145, (S)-3-Cyano-N-(8,9-difluoro-6-oxo-1,4,5,6-tetrahydro-2H-pyrano[3,4-c]isoquinolin-1-yl)-N-methylbenzenesulfonamide]", "values": [{"measurement": "EC50", "value": 5500, "unit": "nM"}]}
{"smiles": "CN([C@@H]1COCc2[nH]c(=O)c3cc(F)c(F)cc3c21)S(=O)(=O)c1ccc(F)c(C#N)c1", "note": "[Compound 146, (S)-3-Cyano-N-(8,9-difluoro-6-oxo-1,4,5,6-tetrahydro-2H-pyrano[3,4-c]isoquinolin-1-yl)-4-fluoro-N-methylbenzenesulfonamide]", "values": [{"measurement": "EC50", "value": 23000, "unit": "nM"}]}
{"smiles": "CCc1ccc(C(=O)N(C)[C@@H]2COCc3[nH]c(=O)c4cc(F)c(F)cc4c32)cc1F", "note": "[Compound 147, (S)-N-(8,9-Difluoro-6-oxo-1,4,5,6-tetrahydro-2H-pyrano[3,4-c]isoquinolin-1-yl)-4-ethyl-3-fluoro-N-methylbenzamide]", "values": [{"measurement": "EC50", "value": 3300, "unit": "nM"}]}
{"smiles": "O=C(N[C@@H]1COCc2[nH]c(=O)c3cc(F)c(F)cc3c21)c1cc2ccccn2c1", "note": "[Compound 148, (S)-N-(8,9-Difluoro-6-oxo-1,4,5,6-tetrahydro-2H-pyrano[3,4-c]isoquinolin-1-yl)indolizine-2-carboxamide]", "values": [{"measurement": "EC50", "value": 760, "unit": "nM"}]}
{"smiles": "CN(C(=O)c1ccc(OC(F)F)c(F)c1)[C@@H]1COCc2[nH]c(=O)c3cc(F)c(F)cc3c21", "note": "[Compound 153, (S)-N-(8,9-Difluoro-6-oxo-1,4,5,6-tetrahydro-2H-pyrano[3,4-c]isoquinolin-1-yl)-4-(difluoromethoxy)-3-fluoro-N-methylbenzamide]", "values": [{"measurement": "EC50", "value": 150, "unit": "nM"}]}
{"smiles": "CN(C(=O)c1ccc(C(C)(C)O)cc1)[C@@H]1COCc2[nH]c(=O)c3cc(F)c(F)cc3c21", "note": "[Compound 154, (S)-N-(8,9-Difluoro-6-oxo-1,4,5,6-tetrahydro-2H-pyrano[3,4-c]isoquinolin-1-yl)-4-(2-hydroxypropan-2-yl)-N-methylbenzamide]", "values": [{"measurement": "EC50", "value": 1050, "unit": "nM"}]}
{"smiles": "CN(C(=O)c1cccc(C(C)(C)O)c1)[C@@H]1COCc2[nH]c(=O)c3cc(F)c(F)cc3c21", "note": "[Compound 155, (S)-N-(8,9-Difluoro-6-oxo-1,4,5,6-tetrahydro-2H-pyrano[3,4-c]isoquinolin-1-yl)-3-(2-hydroxypropan-2-yl)-N-methylbenzamide]", "values": [{"measurement": "EC50", "value": 4490, "unit": "nM"}]}
{"smiles": "O=C(N[C@@H]1COCc2[nH]c(=O)c3cc(F)c(F)cc3c21)c1cc2cc(F)c(F)cc2[nH]1", "note": "[Compound 156, (S)-N-(8,9-Difluoro-6-oxo-1,4,5,6-tetrahydro-2H-pyrano[3,4-c]isoquinolin-1-yl)-5,6-difluoro-1H-indole-2-carboxamide]", "values": [{"measurement": "EC50", "value": 490, "unit": "nM"}]}
{"smiles": "O=C(N[C@@H]1COCc2[nH]c(=O)c3cc(F)c(F)cc3c21)c1cc2c(F)cc(F)cc2[nH]1", "note": "[Compound 157, (S)-N-(8,9-Difluoro-6-oxo-1,4,5,6-tetrahydro-2H-pyrano[3,4-c]isoquinolin-1-yl)-4,6-difluoro-1H-indole-2-carboxamide]", "values": [{"measurement": "EC50", "value": 250, "unit": "nM"}]}
{"smiles": "O=C(N[C@@H]1COCc2[nH]c(=O)c3cc(F)c(F)cc3c21)c1ccc(C(F)(F)F)c(F)c1", "note": "[Compound 158, (S)-N-(8,9-Difluoro-6-oxo-1,4,5,6-tetrahydro-2H-pyrano[3,4-c]isoquinolin-1-yl)-3-fluoro-4-(trifluoromethyl)benzamide]", "values": [{"measurement": "EC50", "value": 580, "unit": "nM"}]}
{"smiles": "O=C(N[C@@H]1COCc2[nH]c(=O)c3cc(F)c(F)cc3c21)c1ccc(Cl)c(F)c1", "note": "[Compound 159, (S)-4-chloro-N-(8,9-difluoro-6-oxo-1,4,5,6-tetrahydro-2H-pyrano[3,4-c]isoquinolin-1-yl)-3-fluorobenzamide]", "values": [{"measurement": "EC50", "value": 660, "unit": "nM"}]}
{"smiles": "CN(C(=O)c1cc(F)c(Br)c(F)c1)[C@@H]1COCc2[nH]c(=O)c3cc(F)c(F)cc3c21", "note": "[Compound 172, 4-Bromo-N-(8,9-difluoro-6-oxo-2,4,5,6-tetrahydro-1H-pyrano[3,4-c]isoquinolin-1-yl)-3,5-difluoro-N-methylbenzamide]", "values": [{"measurement": "EC50", "value": 10, "unit": "nM"}]}
{"smiles": "CN(C(=O)c1cc(F)c(Cl)c(F)c1)[C@@H]1COCc2[nH]c(=O)c3cc(F)c(F)cc3c21", "note": "[Compound 173, 4-Chloro-N-(8,9-difluoro-6-oxo-2,4,5,6-tetrahydro-1H-pyrano[3,4-c]isoquinolin-1-yl)-3,5-difluoro-N-methylbenzamide]", "values": [{"measurement": "EC50", "value": 10, "unit": "nM"}]}
{"smiles": "CN(C(=O)c1cc(F)c(C(F)F)c(F)c1)[C@@H]1COCc2[nH]c(=O)c3cc(F)c(F)cc3c21", "note": "[Compound 180, (S)-N-(8,9-Difluoro-6-oxo-1,4,5,6-tetrahydro-2H-pyrano[3,4-c]isoquinolin-1-yl)-4-(difluoromethyl)-3,5-difluoro-N-methylbenzamide]", "values": [{"measurement": "EC50", "value": 160, "unit": "nM"}]}
{"smiles": "CN(C(=O)c1cc2cc(F)c(F)cc2[nH]1)[C@@H]1COC(O)c2[nH]c(=O)c3cc(F)c(F)cc3c21", "note": "(stereo partly drawn) [Compound 187, N-((1S)-8,9-Difluoro-4-hydroxy-6-oxo-1,4,5,6-tetrahydro-2H-pyrano[3,4-c]isoquinolin-1-yl)-5,6-difluoro-N-methyl-1H-indole-2-carboxamide]", "values": [{"measurement": "EC50", "value": 10, "unit": "nM"}]}
{"smiles": "CN(C(=O)c1cnn(C)c1)[C@@H]1COCc2[nH]c(=O)c3cc(F)c(F)cc3c21", "note": "[Compound 188, (S)-N-(8,9-Difluoro-6-oxo-1,4,5,6-tetrahydro-2H-pyrano[3,4-c]isoquinolin-1-yl)-N,1-dimethyl-1H-pyrazole-4-carboxamide]", "values": [{"measurement": "EC50", "value": 18300, "unit": "nM"}]}
{"smiles": "C=C(C(=O)N(C)[C@@H]1COCc2[nH]c(=O)c3cc(F)c(F)cc3c21)c1ccccc1", "note": "[Compound 189, (S)-N-(8,9-Difluoro-6-oxo-1,4,5,6-tetrahydro-2H-pyrano[3,4-c]isoquinolin-1-yl)-N-methyl-2-phenylacrylamide]", "values": [{"measurement": "EC50", "value": 4400, "unit": "nM"}]}
{"smiles": "CN(C(=O)c1cc2cc(F)cnc2[nH]1)[C@@H]1COCc2[nH]c(=O)c3cc(F)c(F)cc3c21", "note": "[Compound 190, (S)-N-(8,9-Difluoro-6-oxo-1,4,5,6-tetrahydro-2H-pyrano[3,4-c]isoquinolin-1-yl)-5-fluoro-N-methyl-1H-pyrrolo[2,3-b]pyridine-2-carboxamide]", "values": [{"measurement": "EC50", "value": 330, "unit": "nM"}]}
{"smiles": "CN(C(=O)c1cc2cc(Cl)cnc2[nH]1)[C@@H]1COCc2[nH]c(=O)c3cc(F)c(F)cc3c21", "note": "[Compound 191, (S)-5-Chloro-N-(8,9-difluoro-6-oxo-1,4,5,6-tetrahydro-2H-pyrano[3,4-c]isoquinolin-1-yl)-N-methyl-1H-pyrrolo[2,3-b]pyridine-2-carboxamide]", "values": [{"measurement": "EC50", "value": 120, "unit": "nM"}]}
{"smiles": "CN(C(=O)c1cc2cc(Br)cnc2[nH]1)[C@@H]1COCc2[nH]c(=O)c3cc(F)c(F)cc3c21", "note": "[Compound 192, (S)-5-Bromo-N-(8,9-difluoro-6-oxo-1,4,5,6-tetrahydro-2H-pyrano[3,4-c]isoquinolin-1-yl)-N-methyl-1H-pyrrolo[2,3-b]pyridine-2-carboxamide]", "values": [{"measurement": "EC50", "value": 260, "unit": "nM"}]}
{"smiles": "CN(C(=O)c1c[nH]c(=O)c(C(F)(F)F)c1)[C@@H]1COCc2[nH]c(=O)c3cc(F)c(F)cc3c21", "note": "[Compound 193, (S)-N-(8,9-Difluoro-6-oxo-1,4,5,6-tetrahydro-2H-pyrano[3,4-c]isoquinolin-1-yl)-N-methyl-6-oxo-5-(trifluoromethyl)-1,6-dihydropyridine-3-carboxamide]", "values": [{"measurement": "EC50", "value": 3200, "unit": "nM"}]}
